This experiment deals with 935938-334-R-J1-PDC spheroids with HUVEC/MSC, viability. Kind of experiment: Anticancer human tumor 935938-334-R-J1-PDC patient-derived small intestine adenocarcinoma cell line growth inhibition [PI3K]. The following applies: for viability, T/C: stronger effect = lower value. An excerpt:
Combinatorial screen of targeted agents with the PI3K inhibitors inavolisib, alpelisib, duvelisib, and copanlisib in multi-cell type tumor spheroids
A high-throughput screen of multi-cell type tumor spheroids was designed to identify active combinations of targeted small molecules and PI3K pathway inhibitors. Complex spheroids include a stromal component modeled by human endothelial cells (HUVEC) and fibroblasts modeled by human mesenchymal stem cells (MSCs). The concentration ranges selected for each drug and investigational agent were based upon clinically achievable concentrations if the clinical Cmax of the agent was known.
Compounds. The drugs and investigational agents: inavolisib (NSC800729), alpelisib (NSC765974), duvelisib (NSC772469), copanlisib (NSC816437), ipatasertib (NSC767898), afuresertib (NSC778305), talazoparib (NSC767125), sapanisertib (NSC764658), selumetinib (NSC741078), tovorafenib (DAY101, NSC766906), vemurafenib (NSC761431), ravoxertinib (NSC781343), sotorasib (NSC818433), MRTX1133 (NSC 836407), abemaciclib (NSC 768073), palbociclib (NSC758247), venetoclax (NSC 766270), SY5609 (NSC837396), enzalutamide (NSC755605), and darolutamide (NSC825331), were obtained from the National Cancer Institute (NCI) Developmental Therapeutics Program Chemical Repository. The FDA-approved anticancer drug set is available from the NCI Developmental Therapeutics Program. […] The stock solutions were prepared in dimethyl sulfoxide (DMSO, Sigma-Aldrich, St. Louis, MO, cat. D2650) at 800-fold the tested concentration and stored at -70 degrees C prior to their use. All drugs and investigational agents were tested over a range starting from a high concentration at or near the clinical Cmax and decreasing in half-log increments. If the clinical Cmax for an agent had not been determined, the highest concentration tested was 10 microM.
Cell Culture. All cells were maintained in an incubator at 37 degrees C and 5% CO2 with 95% humidity. The PDC lines were cultured according to standard operating procedures established by the NCI PDMR (https://pdmr.cancer.gov/sops/default.htm). All PDCs were thawed and cultured in Matrigel-coated flasks prepared with a working solution of 1X Ham's F-12 nutrient mix, without supplementation (Invitrogen, Waltham, MA, cat. 11765054), 100 U/mL penicillin-streptomycin (Invitrogen, cat. 15140122), and 2.5% Matrigel (Corning Inc., Corning, NY, cat. 354248) for the first three passages. The 354836-022-R-J1-PDC, 475296-252-R-J1-PDC, and 997726-040-R-J2-PDC lines were cultured in 6A media, which includes advanced DMEM/F-12 (Thermo Fisher Scientific, cat. 12634028), 10 mM HEPES (Thermo Fisher Scientific, cat. 15630080), 1X GlutaMAX supplement (Thermo Fisher Scientific, cat. 35050061), 0.1 mg/mL primocin (InvivoGen, San Diego, CA, cat. ant-pm-2), 10% defined fetal bovine serum, heat inactivated (HyClone Laboratories Inc., Logan, UT, cat. SH30070.03HI), 50% L-WRN conditioned media (ATCC, cat. CRL-3276), 1.25 mM N-Acetyl-L-cysteine (Sigma-Aldrich, cat. A9165), 10 mM nicotinamide (Sigma-Aldrich, cat. N0636), 1X B-27 supplement (Thermo Fisher Scientific, cat. 17504044), 1X N-2 supplement (Thermo Fisher Scientific, cat. 17502048), and 10 microM Y-27632 dihydrochloride (Tocris Bioscience, Bristol, United Kingdom, cat. 1254). The 624824-186-R-J2-PDC line was cultured in 6C/Colon 1B media, which includes all 6A media components plus 50 ng/mL human EGF recombinant protein (Thermo Fisher Scientific, cat. PHG0311). […]

Where [1] appears, read: curve of first compound, second compound 0.0316 µM.
Where [2] appears, read: curve of first compound, second compound 0.1 µM.
Setting [3] is: curve of first compound, second compound 0.316 µM.
The mark [4] stands for this setting: curve of first compound, second compound 1 µM.
[5] abbreviates: second compound 0.0316 µM, first compound 0.0316 µM.
Setting [6] is: second compound 0.0316 µM, first compound 0.1 µM.
[7] abbreviates: second compound 0.0316 µM, first compound 0.316 µM.
[8] abbreviates: second compound 0.0316 µM, first compound 1 µM.
Where [9] appears, read: second compound 0.0316 µM, first compound 3.16 µM.
[10] abbreviates: second compound 0.0316 µM, first compound 10 µM.
The mark [11] stands for this setting: second compound 0.1 µM, first compound 0.0316 µM.
The mark [12] stands for this setting: second compound 0.1 µM, first compound 0.1 µM.
Setting [13] is: second compound 0.1 µM, first compound 0.316 µM.
Where [14] appears, read: second compound 0.1 µM, first compound 1 µM.
Where [15] appears, read: second compound 0.1 µM, first compound 3.16 µM.
Setting [16] is: second compound 0.1 µM, first compound 10 µM.
Setting [17] is: second compound 0.316 µM, first compound 0.0316 µM.
[18] abbreviates: second compound 0.316 µM, first compound 0.1 µM.
Where [19] appears, read: second compound 0.316 µM, first compound 0.316 µM.
Setting [20] is: second compound 0.316 µM, first compound 1 µM.
Setting [21] is: second compound 0.316 µM, first compound 3.16 µM.
Where [22] appears, read: second compound 0.316 µM, first compound 10 µM.
[23] abbreviates: second compound 1 µM, first compound 0.0316 µM.
Where [24] appears, read: second compound 1 µM, first compound 0.1 µM.
[25] abbreviates: second compound 1 µM, first compound 0.316 µM.
Where [26] appears, read: second compound 1 µM, first compound 1 µM.
The mark [27] stands for this setting: second compound 1 µM, first compound 3.16 µM.
[28] abbreviates: second compound 1 µM, first compound 10 µM.

Structures are written as SMILES. Several values for one entry are separate records, joined by “and”; a condition that tells them apart may be missing. Identical values can stand only once.
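Further: compound exposure lasted seven days before viability was read.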
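Wherever viability, T/C is given: percent of vehicle DMSO treated spheroid viability so 100% = untreated.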

Consider `Cn1nccc1Nc1nccc(-c2ccn(C(CO)c3ccc(Cl)c(F)c3)c(=O)c2)n1` (stereo unspecified) + COc1c(OCCCN2CCOCC2)ccc2c3n(c(=NC(=O)c4cnc(N)nc4)nc12)CCN3, for which the IC50 (curve of first compound, second compound 0.00316 µM) came out at 1380 nM; the IC50 (curve of first compound, second compound 0.01 µM) turned out to be 1500 nM; the 50% inhibitory concentration (IC50) under setting [1] is 566 nM; the IC50 under setting [2] was less than 31.6 nM; the IC50 under setting [3] is less than 31.6 nM; the IC50 under setting [4] is less than 31.6 nM. For the same molecule, the viability, T/C is, setting by setting: (second compound 0.00316 µM, first compound 0.0316 µM) 81.5%; (second compound 0.00316 µM, first compound 0.1 µM) 99.5%; (second compound 0.00316 µM, first compound 0.316 µM) 54.7%; (second compound 0.00316 µM, first compound 1 µM) 58.4%; (second compound 0.00316 µM, first compound 3.16 µM) 41.4%; (second compound 0.00316 µM, first compound 10 µM) 25.2%. Also, the viability, T/C by setting is: (second compound 0.01 µM, first compound 0.0316 µM) 85.7%; (second compound 0.01 µM, first compound 0.1 µM) 77.8%; (second compound 0.01 µM, first compound 0.316 µM) 68.9%; (second compound 0.01 µM, first compound 1 µM) 55.6%; (second compound 0.01 µM, first compound 3.16 µM) 39.9%; (second compound 0.01 µM, first compound 10 µM) 28%. In addition, the viability, T/C by setting is: under setting [5], 58.8%; under setting [6], 76.7%; under setting [7], 49.2%; under setting [8], 46.1%; under setting [9], 33.5%; under setting [10], 28%. Moreover, the viability, T/C under setting [11] is 49.4%; the viability, T/C under setting [12] is 39.6%; the viability, T/C under setting [13] is 40.1%; the viability, T/C under setting [14] was 28%; the viability, T/C under setting [15] was 18.1%; the viability, T/C under setting [16] was 20.6%. Moreover, the viability, T/C is, setting by setting: under setting [17], 36.4%; under setting [18], 32%; under setting [19], 22.3%; under setting [20], 22.4%; under setting [21], 21.7%; under setting [22], 23%. Further, the viability, T/C under setting [23] is 34.6%; the viability, T/C under setting [24] was 27%; the viability, T/C under setting [25] was 25.1%; the viability, T/C under setting [26] is 23.9%; the viability, T/C under setting [27] is 19.5%; the viability, T/C under setting [28] is 17.9%.

`CNC(=O)c1ccc(N2C(=S)N(c3ccc(C#N)c(C(F)(F)F)c3)C(=O)C2(C)C)cc1F`: the viability, T/C runs as follows: (compound 0.0316 µM) 95.8% [middle of 4 runs]; (compound 0.1 µM) 97.6% [middle of 4 runs]; (compound 0.316 µM) 96.2% [middle of 4 runs]; (compound 3.16 µM) 101% [middle of 4 runs]; (compound 10 µM) 97.4% [middle of 4 runs]. The IC50 (curve of compound) was more than 10000 nM.

In the case of `CC(C)n1nc(-c2ccc3oc(N)nc3c2)c2c(N)ncnc21`, the viability, T/C was 94.6% [middle of 4 runs] (compound 0.000316 µM); 105% [middle of 4 runs] (compound 0.001 µM); 106% [middle of 4 runs] (compound 0.00316 µM); 79.1% [middle of 4 runs] (compound 0.0316 µM); 52.8% [middle of 4 runs] (compound 0.1 µM). Moreover, the IC50 (curve of compound) was > 100 nM and 90.5 nM.

Take `C=CC(=O)N1CCN(c2nc(=O)n(-c3c(C)ccnc3C(C)C)c3nc(-c4c(O)cccc4F)c(F)cc23)C(C)C1` (stereo unspecified) + Cc1nc(NC(=O)N2CCCC2C(N)=O)sc1-c1ccnc(C(C)(C)C(F)(F)F)c1: the IC50 is, setting by setting: under setting [1], more than 10000 nM; under setting [2], more than 10000 nM; under setting [3], more than 10000 nM; under setting [4], more than 10000 nM; (curve of first compound, second compound 3.16 µM) more than 10000 nM; (curve of first compound, second compound 10 µM) less than 31.6 nM. The viability, T/C runs as follows: under setting [5], 73%; under setting [6], 92.1%; under setting [7], 88%; under setting [8], 98.7%; under setting [9], 85.7%; under setting [10], 86.8%. In addition, the viability, T/C was 79.2% under setting [11]; 76.2% under setting [12]; 91.2% under setting [13]; 60.7% under setting [14]; 79.5% under setting [15]; 95.8% under setting [16]. Also, the viability, T/C by setting is: under setting [17], 91%; under setting [18], 96%; under setting [19], 74.2%; under setting [20], 69.5%; under setting [21], 72.7%; under setting [22], 92.3%. The viability, T/C is, setting by setting: under setting [23], 68.4%; under setting [24], 64%; under setting [25], 60.5%; under setting [26], 68.7%; under setting [27], 77.3%; under setting [28], 47.4%. Further, the viability, T/C is 48.4% (second compound 3.16 µM, first compound 0.0316 µM); 55.1% (second compound 3.16 µM, first compound 0.1 µM); 45.1% (second compound 3.16 µM, first compound 0.316 µM); 57.1% (second compound 3.16 µM, first compound 1 µM); 64.7% (second compound 3.16 µM, first compound 3.16 µM); 42.5% (second compound 3.16 µM, first compound 10 µM). The viability, T/C is, setting by setting: (second compound 10 µM, first compound 0.0316 µM) 43.2%; (second compound 10 µM, first compound 0.1 µM) 40.1%; (second compound 10 µM, first compound 0.316 µM) 47.3%; (second compound 10 µM, first compound 1 µM) 36.5%; (second compound 10 µM, first compound 3.16 µM) 35%; (second compound 10 µM, first compound 10 µM) 32.2%.

As a reminder, the IC50 is the concentration at which inhibition is half-maximal. As usually defined, the viability, T/C is the ratio of treated to control.

These data come from PubChem BioAssay AID1963966 (Molecular Pharmacology Branch, DTP, NCI, 2024).
